In PMC6013247, “Preclinical characterization of INCB053914, a novel pan-PIM kinase inhibitor, alone and in combination with anticancer agents, in models of hematologic malignancies” (PLoS ONE, 2018):

Key:
[1] = test system: primary bone marrow blasts from patients with AML; test: Ex vivo treatment of primary bone marrow blasts from patients with AML (Western blot); format: cell-based, human
Protocol: The effects of INCB053914 on pBAD, pp70S6K, and p4E-BP1 levels and on the expression of PIM isozymes also were assessed ex vivo in primary bone marrow blasts (Stem Cell and Xenograft Core, University of Pennsylvania, Philadelphia, Pennsylvania) or in peripheral blood mononuclear cells (PBMCs) derived from whole blood samples obtained with informed written consent from adult patients with AML enrolled in an ongoing phase 1/2 dose-escalation trial, which was conducted in accordance with the study protocol approved by the respective institutional review boards or independent ethics committees. Only samples initially containing >90% viable cells were used (assessed by Trypan Blue staining). Immediately after thawing, the blasts were cultured in RPMI + 10% FBS with INCB053914 for 2 hours at 37°C, before lysis. For determinations of PIM2 expression in PBMCs, whole blood samples were treated overnight with increasing concentrations of INCB053914; total PBMCs were isolated by Ficoll-Paque density gradient centrifugation before lysis. The levels of PIM isozymes and phosphoproteins in cell lysates were detected by Western blotting using the same primary antibodies as above.

IKKB = IKKB (Homo sapiens, UniProt O14920); test: Kinase selectivity panel; format: biochemical; conditions: [ATP] = 1 mM
RSK2 = RSK2 (Homo sapiens, UniProt P51812); test: Kinase selectivity panel; format: biochemical
[2] = test system: panel of more than 50 kinases; conditions: except for RSK2
Protocol: S1 Table. Selectivity of INCB053914 for PIM kinases compared with 56 kinases representative of the kinome [ATP] = 1 mM.

KMS-28-BM = test: Cell proliferation assay ([3H]-thymidine); format: cell-based; conditions: KMS-28-BM (MM)
Protocol: (§1) The antiproliferative effects of INCB053914 on hematologic tumor cells were investigated using assays described in the Supporting Information (S2 File).
(§2) Cell proliferation assays. […] After 3 to 4 days, [^3H]-thymidine (1 μCi/well) (PerkinElmer) in PBS (10 μl) was added to the cell culture for an additional 12 hours. The incorporated radioactivity was separated by filtration with water through GF/B filters (Packard Bioscience, Meriden, Connecticut) and measured by liquid scintillation counting with a TopCount (Packard Bioscience).

HBL-1 = test: Cell proliferation assay ([3H]-thymidine); format: cell-based; conditions: HBL1; HBL-1 (DLBCL); read-out: Mean (± SD) GI50
Protocol: as §1, §2

Pfeiffer = test: Cell proliferation assay ([3H]-thymidine); format: cell-based; conditions: Pfeiffer (DLBCL)
Protocol: as §1, §2

EOL = test: Cell proliferation assay ([3H]-thymidine); format: cell-based; conditions: EOL (AML)
Protocol: as §1, §2

MM1.S = test: Cell proliferation assay ([3H]-thymidine); format: cell-based; conditions: MM1.S (MM)
Protocol: as §1, §2

Jeko-1 = test: Cell proliferation assay ([3H]-thymidine); format: cell-based; conditions: Jeko-1 (MCL)
Protocol: as §1, §2

Toledo = test: Cell proliferation assay ([3H]-thymidine); format: cell-based; conditions: Toledo (DLBCL)
Protocol: as §1, §2

PL-21 = test: Cell proliferation assay ([3H]-thymidine); format: cell-based; conditions: PL-21 (AML); read-out: Mean (± SD) GI50
Protocol: as §1, §2

JVM2 = test: Cell proliferation assay ([3H]-thymidine); format: cell-based; conditions: JVM2 (MCL)
Protocol: as §1, §2

KMS-34 = test: Cell proliferation assay ([3H]-thymidine); format: cell-based; conditions: KMS-34 (MM)
Protocol: as §1, §2

KMS-12-PE = test: Cell proliferation assay ([3H]-thymidine); format: cell-based; conditions: KMS-12-PE (MM)
Protocol: as §1, §2

KARPASS-422 = test: Cell proliferation assay ([3H]-thymidine); format: cell-based; conditions: read-out: Mean (± SD) GI50
Protocol: as §1, §2

KMS-12-BM = test: Cell proliferation assay ([3H]-thymidine); format: cell-based; conditions: Homo sapiens; KMS-12-BM (MM); read-out: Mean (± SD) GI50
Protocol: as §1, §2

Reh = test: Cell proliferation assay ([3H]-thymidine); format: cell-based; conditions: Reh (T-ALL)
Protocol: as §1, §2

OCI-LY-10 = test: Cell proliferation assay ([3H]-thymidine); format: cell-based; conditions: OCI-LY-10 (DLBCL)
Protocol: as §1, §2

L363 = test: Cell proliferation assay ([3H]-thymidine); format: cell-based; conditions: L363 (MM)
Protocol: as §1, §2

OPM-2 = test: Cell proliferation assay ([3H]-thymidine); format: cell-based; conditions: OPM-2 (MM)
Protocol: as §1, §2

RPMI-6666 = test: Cell proliferation assay ([3H]-thymidine); format: cell-based; conditions: Homo sapiens; RPMI-6666 (HL); read-out: Mean (± SD) GI50
Protocol: as §1, §2

WSU-NHL = test: Cell proliferation assay ([3H]-thymidine); format: cell-based; conditions: WSU-NHL (DLBCL)
Protocol: as §1, §2

AXL = AXL (Homo sapiens, UniProt P30530); test: Kinase selectivity panel; format: biochemical; conditions: [ATP] = 1 mM
MAP3K8 = MAP3K8 (Homo sapiens, UniProt P41279); test: Kinase selectivity panel; format: biochemical; conditions: [ATP] = 1 mM
KIT = KIT (Homo sapiens, UniProt P10721); test: Kinase selectivity panel; format: biochemical; conditions: [ATP] = 1 mM
FLT3 = FLT3 (Homo sapiens, UniProt P36888); test: Kinase selectivity panel; format: biochemical; conditions: [ATP] = 1 mM
[3] = Homo sapiens, read-out: Mean (± SD) GI50

Chain of RSK2 (P51812 whole entry): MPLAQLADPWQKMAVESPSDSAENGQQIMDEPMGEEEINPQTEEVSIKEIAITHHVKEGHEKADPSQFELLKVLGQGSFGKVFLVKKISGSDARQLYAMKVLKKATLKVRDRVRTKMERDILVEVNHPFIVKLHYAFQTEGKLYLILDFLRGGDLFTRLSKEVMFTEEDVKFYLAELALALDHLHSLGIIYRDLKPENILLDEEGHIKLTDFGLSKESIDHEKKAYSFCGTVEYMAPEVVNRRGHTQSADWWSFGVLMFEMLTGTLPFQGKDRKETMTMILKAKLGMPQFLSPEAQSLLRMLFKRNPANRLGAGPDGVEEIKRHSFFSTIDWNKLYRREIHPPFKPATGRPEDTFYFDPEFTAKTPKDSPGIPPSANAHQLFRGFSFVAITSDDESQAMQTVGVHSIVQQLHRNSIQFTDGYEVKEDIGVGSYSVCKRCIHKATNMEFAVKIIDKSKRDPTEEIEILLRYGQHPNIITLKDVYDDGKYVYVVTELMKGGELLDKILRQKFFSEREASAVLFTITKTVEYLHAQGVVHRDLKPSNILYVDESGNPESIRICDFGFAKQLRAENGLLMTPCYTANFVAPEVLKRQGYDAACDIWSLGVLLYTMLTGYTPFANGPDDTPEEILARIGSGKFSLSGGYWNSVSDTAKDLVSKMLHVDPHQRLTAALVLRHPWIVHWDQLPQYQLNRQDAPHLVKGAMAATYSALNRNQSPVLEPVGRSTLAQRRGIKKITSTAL
Chain of IKKB (O14920 whole entry): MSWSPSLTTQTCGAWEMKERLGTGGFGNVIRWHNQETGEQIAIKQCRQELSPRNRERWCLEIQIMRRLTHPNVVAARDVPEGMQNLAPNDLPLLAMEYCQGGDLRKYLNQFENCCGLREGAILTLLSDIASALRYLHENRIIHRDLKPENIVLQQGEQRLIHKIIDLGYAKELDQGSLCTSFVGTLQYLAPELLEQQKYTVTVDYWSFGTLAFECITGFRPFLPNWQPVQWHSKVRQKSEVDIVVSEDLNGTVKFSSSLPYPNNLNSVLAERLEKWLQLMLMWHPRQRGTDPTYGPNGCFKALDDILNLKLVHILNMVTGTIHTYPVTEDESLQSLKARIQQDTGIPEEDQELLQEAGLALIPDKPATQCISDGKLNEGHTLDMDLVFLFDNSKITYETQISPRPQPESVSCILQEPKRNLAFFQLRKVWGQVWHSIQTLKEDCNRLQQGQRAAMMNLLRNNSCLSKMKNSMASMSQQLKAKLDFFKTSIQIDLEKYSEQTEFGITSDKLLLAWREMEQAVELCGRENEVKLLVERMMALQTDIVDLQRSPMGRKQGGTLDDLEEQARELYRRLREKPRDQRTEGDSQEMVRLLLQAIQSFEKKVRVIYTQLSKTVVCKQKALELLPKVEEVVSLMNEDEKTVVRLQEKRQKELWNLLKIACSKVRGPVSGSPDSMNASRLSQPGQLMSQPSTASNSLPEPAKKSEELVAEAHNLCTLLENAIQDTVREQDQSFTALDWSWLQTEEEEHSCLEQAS
Chain of KIT (P10721 26-976): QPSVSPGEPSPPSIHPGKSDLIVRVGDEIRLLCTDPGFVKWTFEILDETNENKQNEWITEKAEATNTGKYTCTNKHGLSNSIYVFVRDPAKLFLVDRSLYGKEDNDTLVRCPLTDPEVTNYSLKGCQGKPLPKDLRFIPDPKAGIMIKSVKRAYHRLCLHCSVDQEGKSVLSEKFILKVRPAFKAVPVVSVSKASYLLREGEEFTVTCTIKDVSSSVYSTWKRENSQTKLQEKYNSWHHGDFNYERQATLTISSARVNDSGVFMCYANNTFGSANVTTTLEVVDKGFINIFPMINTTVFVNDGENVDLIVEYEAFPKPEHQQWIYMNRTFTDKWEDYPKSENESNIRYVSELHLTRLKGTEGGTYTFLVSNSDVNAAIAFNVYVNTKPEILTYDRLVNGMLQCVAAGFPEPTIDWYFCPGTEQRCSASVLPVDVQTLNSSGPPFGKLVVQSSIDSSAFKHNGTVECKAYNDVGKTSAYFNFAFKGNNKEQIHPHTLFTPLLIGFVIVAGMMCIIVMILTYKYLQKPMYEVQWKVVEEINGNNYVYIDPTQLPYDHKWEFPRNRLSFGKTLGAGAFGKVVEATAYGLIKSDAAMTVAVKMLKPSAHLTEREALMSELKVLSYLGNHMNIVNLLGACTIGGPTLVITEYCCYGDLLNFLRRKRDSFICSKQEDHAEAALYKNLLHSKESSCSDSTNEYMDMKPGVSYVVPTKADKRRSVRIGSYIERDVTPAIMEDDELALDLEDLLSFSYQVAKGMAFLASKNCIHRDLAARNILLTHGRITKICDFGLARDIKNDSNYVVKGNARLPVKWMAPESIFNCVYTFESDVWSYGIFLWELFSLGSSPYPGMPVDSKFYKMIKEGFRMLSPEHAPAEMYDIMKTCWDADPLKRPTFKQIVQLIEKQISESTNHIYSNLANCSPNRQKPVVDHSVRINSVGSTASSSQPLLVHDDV
Chain of FLT3 (P36888 27-993): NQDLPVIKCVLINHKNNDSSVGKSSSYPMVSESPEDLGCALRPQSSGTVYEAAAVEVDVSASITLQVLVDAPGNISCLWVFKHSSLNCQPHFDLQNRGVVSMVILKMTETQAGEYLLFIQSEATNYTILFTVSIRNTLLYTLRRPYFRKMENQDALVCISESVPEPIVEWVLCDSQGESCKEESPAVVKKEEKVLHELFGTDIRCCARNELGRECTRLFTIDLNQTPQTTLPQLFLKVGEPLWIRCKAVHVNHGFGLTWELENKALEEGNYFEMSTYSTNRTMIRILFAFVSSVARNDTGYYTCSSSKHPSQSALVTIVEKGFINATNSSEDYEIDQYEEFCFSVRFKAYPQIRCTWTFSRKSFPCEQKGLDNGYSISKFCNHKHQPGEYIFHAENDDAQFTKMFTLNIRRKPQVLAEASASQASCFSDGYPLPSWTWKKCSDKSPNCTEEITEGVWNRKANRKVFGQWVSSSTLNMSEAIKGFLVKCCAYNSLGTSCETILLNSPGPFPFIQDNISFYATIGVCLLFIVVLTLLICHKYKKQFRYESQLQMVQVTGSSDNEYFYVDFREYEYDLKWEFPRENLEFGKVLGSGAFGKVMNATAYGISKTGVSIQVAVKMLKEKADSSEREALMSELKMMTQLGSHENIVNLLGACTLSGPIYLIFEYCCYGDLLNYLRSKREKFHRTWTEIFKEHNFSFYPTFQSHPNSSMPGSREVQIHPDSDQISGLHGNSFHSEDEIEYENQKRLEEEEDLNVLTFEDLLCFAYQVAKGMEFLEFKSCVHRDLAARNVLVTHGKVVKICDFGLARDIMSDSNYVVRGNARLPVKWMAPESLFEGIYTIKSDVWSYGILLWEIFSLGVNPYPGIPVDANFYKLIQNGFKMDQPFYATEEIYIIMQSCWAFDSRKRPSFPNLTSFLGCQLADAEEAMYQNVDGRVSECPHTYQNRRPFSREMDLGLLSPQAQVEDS
Chain of MAP3K8 (P41279 whole entry): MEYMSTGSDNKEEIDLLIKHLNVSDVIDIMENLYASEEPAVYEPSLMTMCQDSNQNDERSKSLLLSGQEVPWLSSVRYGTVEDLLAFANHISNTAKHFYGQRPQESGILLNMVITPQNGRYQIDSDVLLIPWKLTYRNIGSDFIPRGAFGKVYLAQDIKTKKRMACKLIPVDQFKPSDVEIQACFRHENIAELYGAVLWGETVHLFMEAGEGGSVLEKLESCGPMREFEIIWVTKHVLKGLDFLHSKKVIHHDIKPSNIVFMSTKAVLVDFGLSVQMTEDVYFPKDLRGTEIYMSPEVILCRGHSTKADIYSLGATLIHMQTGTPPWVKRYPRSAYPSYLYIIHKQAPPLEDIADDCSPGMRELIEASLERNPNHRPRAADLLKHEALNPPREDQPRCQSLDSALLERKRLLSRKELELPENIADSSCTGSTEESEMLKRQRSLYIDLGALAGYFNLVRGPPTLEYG
Chain of AXL (P30530 26-894): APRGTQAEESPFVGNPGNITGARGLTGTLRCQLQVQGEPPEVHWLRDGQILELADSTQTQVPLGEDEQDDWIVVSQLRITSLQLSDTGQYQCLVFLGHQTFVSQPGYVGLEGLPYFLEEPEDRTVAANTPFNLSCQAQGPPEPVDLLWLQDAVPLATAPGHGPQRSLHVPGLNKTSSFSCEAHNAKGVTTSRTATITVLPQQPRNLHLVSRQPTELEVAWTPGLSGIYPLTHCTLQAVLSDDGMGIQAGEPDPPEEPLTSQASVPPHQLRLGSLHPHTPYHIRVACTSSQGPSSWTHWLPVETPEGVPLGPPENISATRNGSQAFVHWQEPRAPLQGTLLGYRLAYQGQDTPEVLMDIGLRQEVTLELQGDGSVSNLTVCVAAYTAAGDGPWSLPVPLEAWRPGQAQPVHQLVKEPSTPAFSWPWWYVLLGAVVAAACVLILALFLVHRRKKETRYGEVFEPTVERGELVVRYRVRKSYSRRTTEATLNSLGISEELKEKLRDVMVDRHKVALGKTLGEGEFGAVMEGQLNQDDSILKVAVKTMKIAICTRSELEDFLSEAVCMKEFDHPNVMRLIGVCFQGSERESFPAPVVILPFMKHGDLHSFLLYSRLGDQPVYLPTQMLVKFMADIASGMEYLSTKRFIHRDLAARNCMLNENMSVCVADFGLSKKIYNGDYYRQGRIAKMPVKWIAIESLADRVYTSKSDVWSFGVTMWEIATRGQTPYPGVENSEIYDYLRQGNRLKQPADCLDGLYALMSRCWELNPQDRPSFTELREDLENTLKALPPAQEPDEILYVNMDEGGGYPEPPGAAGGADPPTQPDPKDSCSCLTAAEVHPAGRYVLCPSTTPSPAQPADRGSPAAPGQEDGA

## C[C@H]1CN(c2c(NC(=O)c3ccc(F)c(-c4c(F)cccc4F)n3)cnc3c2CC[C@H]3O)C[C@@H](N)[C@@H]1O.O=P(O)(O)O [INCB053914, N-((R)-4-((3R,4R,5S)-3-amino-4-hydroxy-5-methylpiperidin-1-yl)-7-hydroxy-6,7-dihydro-5H-cyclopenta[b]pyridin-3-yl)-6-(2,6-difluorophenyl)-5-fluoropicolinamide phosphate]
[1]
  patients whose blasts showed decreases in BAD phosphorylation: two of four patients
[1]; 2 hours
  PIM2 expression: increased PIM2 expression
  phosphorylation of p70S6K and 4E-BP1: decreased phosphorylation of p70S6K and 4E-BP1
IKKB
  IC50: > 20000 nM
RSK2; [ATP] = 1 mM
  IC50: 7120 nM
RSK2; as given in the text
  IC50: 7100 nM
[2]
  selectivity against a panel of more than 50 kinases: > 475 fold
KMS-28-BM
  Mean (SD) maximum inhibition: 86.0 ± 3.7%
KMS-28-BM; read-out: Mean (± SD) GI50
  GI50: 36.7 ± 9.9 nM
HBL-1
  GI50: > 3000 nM
Pfeiffer; [3]
  GI50: 19.5 nM
Pfeiffer
  Mean (SD) maximum inhibition: 90.5 ± 6.7%
EOL
  Mean (SD) maximum inhibition: 99.5 ± 0.6%
EOL; read-out: Mean (± SD) GI50
  GI50: 18.5 ± 6.1 nM
MM1.S; [3]
  GI50: 55.4 ± 38.1 nM
MM1.S
  Mean (SD) maximum inhibition: 88.3 ± 3.1%
Jeko-1; [3]
  GI50: 117 ± 45.5 nM
Jeko-1
  Mean (SD) maximum inhibition: 91.3 ± 2.9%
Toledo; [3]
  GI50: 70.7 ± 25.1 nM
Toledo
  Mean (SD) maximum inhibition: 97.6 ± 1.5%
PL-21
  GI50: > 3000 nM
JVM2; Homo sapiens, JVM-2, read-out: Mean (± SD) GI50
  GI50: 290 ± 291 nM
JVM2
  Mean (SD) maximum inhibition: 63.0 ± 8.7%
KMS-34
  Mean (SD) maximum inhibition: 98.8 ± 0.5%
KMS-34; read-out: Mean (± SD) GI50
  GI50: 87.1 ± 28 nM
KMS-12-PE; [3]
  GI50: 89.7 ± 50.9 nM
KMS-12-PE
  Mean (SD) maximum inhibition: 97.0 ± 4.7%
KARPASS-422
  GI50: > 3000 nM
KMS-12-BM
  GI50: 34.2 ± 19.9 nM
Reh; [3]
  GI50: 33.7 ± 24.3 nM
Reh
  Mean (SD) maximum inhibition: 94.3 ± 5.7%
OCI-LY-10; Homo sapiens, OCI-Ly10, read-out: Mean (± SD) GI50
  GI50: 41.7 ± 29.4 nM
OCI-LY-10
  Mean (SD) maximum inhibition: 96.3 ± 5.5%
L363; Homo sapiens, L-363, read-out: Mean (± SD) GI50
  GI50: 115 ± 89.4 nM
L363
  Mean (SD) maximum inhibition: 90.3 ± 8.1%
OPM-2; [3]
  GI50: 123 ± 4.9 nM
OPM-2
  Mean (SD) maximum inhibition: 87.5 ± 8.0%
RPMI-6666
  GI50: > 3000 nM
WSU-NHL; [3]
  GI50: 1270 nM
WSU-NHL
  Mean (SD) maximum inhibition: 76.8 ± 10.5%
AXL
  IC50: > 20000 nM
MAP3K8
  IC50: > 20000 nM
KIT
  IC50: > 20000 nM
FLT3
  IC50: > 20000 nM
